Columns and labels:
Test in all cases: relative viability (nuclei count vs DMSO), 5 days (fraction); higher = more cells survive
[1] = compound: CC1=CC(=NN1)NC2=CC(=NC(=N2)/C=C/C3=CC=CC=C3)N4CCN(CC4)C + N=C(N)NC(=N)NCCc1ccccc1 [Phenformin] (partner 250 µM)
In short: (§1)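 Five library-drug doses in √10 steps were combined with a fixed anchor-drug dose, or a single drug was given alone, by pin tool to lung cancer cell lines in 1536-well plates the day after seeding. Nuclei were stained and counted after 5 days. Relative viability is the nuclei count in treated wells over that in vehicle wells, taken as the median of duplicate plates.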

[2] = compound: CC1=CC(=NN1)NC2=CC(=NC(=N2)/C=C/C3=CC=CC=C3)N4CCN(CC4)C + CC(=O)c1c(C)c2cnc(Nc3ccc(N4CCNCC4)cn3)nc2n(C2CCCC2)c1=O [Palbociclib] (partner 0.5 µM)
In short: as §1

[3] = compound: CC1=CC(=NN1)NC2=CC(=NC(=N2)/C=C/C3=CC=CC=C3)N4CCN(CC4)C + NC(=O)Nc1cc(-c2cccc(F)c2)sc1C(=O)N[C@H]1CCCNC1 [AZD7762] (partner 0.2 µM)
In short: as §1

[4] = compound: CC(C)C[C@H](NC(=O)[C@H](Cc1ccccc1)NC(=O)c1cnccn1)B(O)O [Bortezomib] + Cc1nc(NC(=O)N2CCC[C@H]2C(N)=O)sc1-c1ccnc(C(C)(C)C(F)(F)F)c1 [Alpelisib] (partner 2 µM)
In short: as §1

Row | Cell Line | relative viability ([1]; first compound 0.08 µM) | relative viability ([1]; first compound 0.253 µM) | relative viability ([1]; first compound 0.8 µM) | relative viability ([1]; first compound 2.53 µM) | relative viability ([1]; first compound 8 µM) | relative viability ([2]; first compound 0.08 µM) | relative viability ([2]; first compound 0.253 µM) | relative viability ([2]; first compound 0.8 µM) | relative viability ([2]; first compound 2.53 µM) | relative viability ([2]; first compound 8 µM) | relative viability ([3]; first compound 0.08 µM) | relative viability ([3]; first compound 0.253 µM) | relative viability ([3]; first compound 0.8 µM) | relative viability ([3]; first compound 2.53 µM) | relative viability ([3]; first compound 8 µM) | relative viability ([4]; first compound 0.0002 µM) | relative viability ([4]; first compound 0.000632 µM) | relative viability ([4]; first compound 0.002 µM) | relative viability ([4]; first compound 0.006325 µM) | relative viability ([4]; first compound 0.02 µM)
1 | NCI-H2342 | 0.523 | 0.597 | 0.565 | 0.604 | 0.245 | 0.531 | 0.517 | 0.532 | 0.527 | 0.492 | 0.368 | 0.535 | 0.589 | 0.371 | 0.256 | – | – | – | – | –
2 | HCC-827 | 0.39 | 0.402 | 0.435 | 0.401 | 0.216 | 0.445 | 0.514 | 0.505 | 0.501 | 0.231 | 0.188 | 0.199 | 0.217 | 0.197 | 0.0973 | 1.12 | 0.948 | 0.8 | 0.149 | 0.126
3 | NCI-H322M | 0.759 | 0.852 | 0.688 | 0.31 | 0.218 | 0.444 | 0.572 | 0.458 | 0.336 | 0.287 | 0.555 | 0.6 | 0.615 | 0.403 | 0.302 | 0.771 | – | 0.713 | 0.731 | 1.38
4 | ChaGo-K-1 | 0.482 | 0.442 | 0.434 | 0.151 | 0.121 | 0.756 | 0.952 | 0.933 | 0.378 | 0.17 | 0.823 | 0.935 | 0.824 | 0.439 | 0.241 | – | – | – | – | –
5 | BEN | 0.228 | 0.269 | 0.259 | 0.236 | 0.196 | 0.421 | 0.459 | 0.511 | 0.437 | 0.328 | 0.734 | 0.726 | 0.667 | 0.508 | 0.283 | 0.925 | 1.09 | 0.72 | 0.614 | 0.154
6 | NCI-H2347 | 0.402 | 0.347 | 0.435 | 0.38 | 0.208 | 0.426 | 0.412 | 0.411 | 0.435 | 0.362 | 0.544 | 0.788 | 0.911 | 0.484 | 0.32 | 0.924 | 0.968 | 0.706 | 0.248 | 0.278
7 | LOU-NH91 | 0.7 | 0.768 | 0.78 | 0.509 | 0.365 | 0.55 | 0.516 | 0.5 | 0.56 | 0.407 | 0.782 | 0.834 | 0.733 | 0.518 | 0.336 | 0.72 | 0.628 | 0.395 | 0.309 | 0.305
8 | NCI-H2228 | 0.286 | 0.284 | 0.238 | 0.066 | 0.0616 | 0.64 | 0.727 | 0.518 | 0.0712 | 0.0545 | – | – | – | – | – | 0.796 | 0.748 | 0.411 | 0.111 | 0.102
9 | NCI-H358 | 0.272 | 0.377 | 0.229 | 0.0644 | 0.0549 | 0.12 | 0.144 | 0.133 | 0.0673 | 0.072 | 0.574 | 0.528 | 0.424 | 0.195 | 0.154 | 0.782 | 0.873 | 0.613 | 0.161 | 0.162
10 | HCC-366 | 0.63 | 0.7 | 0.62 | 0.189 | 0.0317 | 0.414 | 0.368 | 0.344 | 0.0349 | 0.019 | 0.247 | 0.302 | 0.245 | 0.0242 | 0.0179 | 0.467 | 0.316 | 0.409 | 0.339 | 0.0134
11 | NCI-H2405 | 0.377 | 0.307 | 0.422 | 0.244 | 0.1 | 0.553 | 0.555 | 0.521 | 0.411 | 0.174 | 0.742 | 0.766 | 0.768 | 0.357 | 0.118 | 0.812 | – | 0.336 | 0.134 | 0.16
12 | Calu-6 | – | – | – | – | – | – | – | – | – | – | – | – | – | – | – | 0.961 | 1.01 | 1.04 | 0.123 | 0.0909
13 | 201T | 0.454 | 0.461 | 0.415 | 0.373 | 0.258 | 0.345 | 0.358 | 0.359 | 0.33 | 0.197 | 0.667 | 0.526 | 0.628 | 0.538 | 0.53 | 1.03 | 0.993 | 0.975 | 0.951 | 0.31
14 | CAL-12T | 0.608 | 0.489 | 0.442 | 0.17 | 0.109 | 0.412 | 0.335 | 0.466 | 0.185 | 0.119 | 0.626 | 0.655 | 0.647 | 0.319 | 0.152 | 1.26 | 1.05 | 1.11 | 0.175 | 0.115
15 | HCC-44 | 0.123 | 0.326 | 0.215 | 0.102 | 0.115 | 0.984 | 0.946 | 0.952 | 1.01 | 0.644 | 1.02 | 1.03 | 1.01 | 1.01 | 0.844 | 0.831 | 0.776 | 0.84 | 0.0994 | 0.115
16 | NCI-H1944 | 0.195 | 0.225 | 0.186 | 0.166 | 0.119 | 0.373 | 0.341 | 0.338 | 0.264 | 0.189 | 0.539 | 0.524 | 0.469 | 0.229 | 0.117 | 0.807 | 0.79 | 0.764 | 0.84 | 0.154
17 | SK-MES-1 | 0.664 | 0.682 | 0.601 | 0.147 | 0.124 | 0.357 | 0.289 | 0.309 | 0.257 | 0.155 | – | – | – | – | – | 0.86 | 0.723 | 0.825 | 0.475 | 0.206
18 | NCI-H2087 | 0.536 | 0.318 | 0.488 | 0.105 | 0.1 | 0.213 | 0.17 | 0.236 | 0.164 | 0.123 | 1.27 | 1.4 | 1.39 | 0.703 | 0.176 | 0.953 | 1.05 | 0.635 | 0.0664 | 0.0561
